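Following 48 hours of exposure in 96-well plates, responses at five concentrations were used to interpolate endpoints linearly. GI50 is the concentration that inhibits growth by half.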 Calls of active or inactive are those of the source. No stated cut-off is given here; in the data, active = GI50 up to about 1.1 µM and inactive = higher.
Assays:
Assay in all cases: NCI tumour cell line growth inhibition, 48 h
SR = test system: SR
NCI/ADR-RES = test system: NCI/ADR-RES
SF-268 = test system: SF-268
SK-MEL-2 = test system: SK-MEL-2
SN12C = test system: SN12C
CAKI-1 = test system: CAKI-1
SF-539 = test system: SF-539
HCT-116 = test system: HCT-116
OVCAR-3 = test system: OVCAR-3
SK-MEL-28 = test system: SK-MEL-28
HOP-62 = test system: HOP-62
NCI-H23 = test system: NCI-H23
SK-OV-3 = test system: SK-OV-3
CCRF-CEM = test system: CCRF-CEM
IGROV-1 = test system: IGROV-1
PC-3 = test system: PC-3
HCC 2998 = test system: HCC 2998
BT-549 = test system: BT-549
COLO 205 = test system: COLO 205
SK-MEL-5 = test system: SK-MEL-5

Structure (SMILES) | GI50 (SR) | GI50 (NCI/ADR-RES) | GI50 (SF-268) | GI50 (SK-MEL-2) | GI50 (SN12C) | GI50 (CAKI-1) | GI50 (SF-539) | GI50 (HCT-116) | GI50 (OVCAR-3) | GI50 (SK-MEL-28) | GI50 (HOP-62) | GI50 (NCI-H23) | GI50 (SK-OV-3) | GI50 (CCRF-CEM) | GI50 (IGROV-1) | GI50 (PC-3) | GI50 (HCC 2998) | GI50 (BT-549) | GI50 (COLO 205) | GI50 (SK-MEL-5)
O=C1c2ccccc2-c2nc(-c3cccnc3)cc3c2c1nc1ccccc13 | 11.9 µM (inactive) | > 100 µM (inactive) | > 100 µM (inactive) | > 100 µM (inactive) | > 100 µM (inactive) | > 100 µM (inactive) | > 100 µM (inactive) | > 100 µM (inactive) | 11.6 µM (inactive) | > 100 µM (inactive) | > 100 µM (inactive) | 88.3 µM (inactive) | > 100 µM (inactive) | 26.5 µM (inactive) | 25.5 µM (inactive) | > 100 µM (inactive) | > 100 µM (inactive) | > 100 µM (inactive) | > 100 µM (inactive) | –
OC1[C@H](O)CN(OCc2ccccc2)C[C@@H]1O (some centres undefined) | > 100 µM (inactive) | > 100 µM (inactive) | > 100 µM (inactive) | > 100 µM (inactive) | > 100 µM (inactive) | > 100 µM (inactive) | > 100 µM (inactive) | > 100 µM (inactive) | > 100 µM (inactive) | > 100 µM (inactive) | > 100 µM (inactive) | > 100 µM (inactive) | – | > 100 µM (inactive) | > 100 µM (inactive) | > 100 µM (inactive) | > 100 µM (inactive) | > 100 µM (inactive) | > 100 µM (inactive) | > 100 µM (inactive)
Cc1ccc(-n2c(C)n[nH]c2=O)cc1 | > 100 µM (inactive) | > 100 µM (inactive) | > 100 µM (inactive) | > 100 µM (inactive) | > 100 µM (inactive) | – | > 100 µM (inactive) | > 100 µM (inactive) | > 100 µM (inactive) | > 100 µM (inactive) | > 100 µM (inactive) | > 100 µM (inactive) | > 100 µM (inactive) | > 100 µM (inactive) | > 100 µM (inactive) | > 100 µM (inactive) | > 100 µM (inactive) | > 100 µM (inactive) | > 100 µM (inactive) | > 100 µM (inactive)
Cc1nc2ccc(Cl)cc2c2c1CCO2 | > 100 µM (inactive) | > 100 µM (inactive) | 68.9 µM (inactive) | – | > 100 µM (inactive) | 43.4 µM (inactive) | 46.5 µM (inactive) | 97.5 µM (inactive) | 91.6 µM (inactive) | > 100 µM (inactive) | > 100 µM (inactive) | > 100 µM (inactive) | – | 57.8 µM (inactive) | 56.8 µM (inactive) | 88.1 µM (inactive) | > 100 µM (inactive) | 92.9 µM (inactive) | 83.9 µM (inactive) | 68.5 µM (inactive)
O=C(c1ccc([N+](=O)[O-])cc1)N1CCCC1 | > 100 µM (inactive) | > 100 µM (inactive) | > 100 µM (inactive) | – | 17.7 µM (inactive) | > 100 µM (inactive) | > 100 µM (inactive) | > 100 µM (inactive) | > 100 µM (inactive) | > 100 µM (inactive) | > 100 µM (inactive) | > 100 µM (inactive) | – | > 100 µM (inactive) | > 100 µM (inactive) | > 100 µM (inactive) | > 100 µM (inactive) | > 100 µM (inactive) | – | > 100 µM (inactive)
CCOC1(OCC)C2C=CC1C(COS(=O)(=O)c1ccc(C)cc1)C2COS(=O)(=O)c1ccc(C)cc1 (centres undefined) | 1.12 µM (inactive) | 32 µM (inactive) | 19.6 µM (inactive) | 28.7 µM (inactive) | 69.8 µM (inactive) | – | 41.4 µM (inactive) | 21.5 µM (inactive) | 22.5 µM (inactive) | 84.9 µM (inactive) | 45.8 µM (inactive) | 39.1 µM (inactive) | 33.3 µM (inactive) | 20 µM (inactive) | 43.1 µM (inactive) | 11.6 µM (inactive) | 38.3 µM (inactive) | 29.3 µM (inactive) | 24.1 µM (inactive) | 15.2 µM (inactive)
Cc1ccc(S(=O)(=O)c2c(O)c3ccc(O)c(C)c3oc2=O)cc1 | > 100 µM (inactive) | > 100 µM (inactive) | > 100 µM (inactive) | > 100 µM (inactive) | > 100 µM (inactive) | > 100 µM (inactive) | > 100 µM (inactive) | > 100 µM (inactive) | > 100 µM (inactive) | > 100 µM (inactive) | – | > 100 µM (inactive) | > 100 µM (inactive) | > 100 µM (inactive) | > 100 µM (inactive) | > 100 µM (inactive) | > 100 µM (inactive) | > 100 µM (inactive) | > 100 µM (inactive) | > 100 µM (inactive)
C=C(CN(C)C)C(=O)c1ccccc1[N+](=O)[O-] | 3.38 µM (inactive) | 19.2 µM (inactive) | 27.2 µM (inactive) | 18 µM (inactive) | 17.7 µM (inactive) | 14.2 µM (inactive) | 39.7 µM (inactive) | 17.3 µM (inactive) | 18.9 µM (inactive) | 17.6 µM (inactive) | 38.7 µM (inactive) | 16.9 µM (inactive) | 37.2 µM (inactive) | – | 22.2 µM (inactive) | 17.4 µM (inactive) | 29.9 µM (inactive) | 16.3 µM (inactive) | 7.8 µM (inactive) | 18.8 µM (inactive)
COc1cc(/C=N/N=C2NCCCCN2)ccc1O | > 100 µM (inactive) | > 100 µM (inactive) | > 100 µM (inactive) | > 100 µM (inactive) | > 100 µM (inactive) | – | > 100 µM (inactive) | > 100 µM (inactive) | > 100 µM (inactive) | > 100 µM (inactive) | > 100 µM (inactive) | > 100 µM (inactive) | > 100 µM (inactive) | > 100 µM (inactive) | > 100 µM (inactive) | > 100 µM (inactive) | > 100 µM (inactive) | > 100 µM (inactive) | > 100 µM (inactive) | 40 µM (inactive)
CC(=O)Nc1cc2cc(NS(=O)(=O)c3cc(C(F)(F)F)cc(C(F)(F)F)c3)ccc2oc1=O | > 100 µM (inactive) | > 100 µM (inactive) | 32.6 µM (inactive) | > 100 µM (inactive) | > 100 µM (inactive) | > 100 µM (inactive) | 29.4 µM (inactive) | > 100 µM (inactive) | 52.1 µM (inactive) | > 100 µM (inactive) | > 100 µM (inactive) | > 100 µM (inactive) | – | > 100 µM (inactive) | > 100 µM (inactive) | > 100 µM (inactive) | > 100 µM (inactive) | > 100 µM (inactive) | > 100 µM (inactive) | > 100 µM (inactive)
CCSC1=C(C#N)C2(CCCCC2)C2=C(O)CC(C)(C)CC2=N1 | > 100 µM (inactive) | 39.4 µM (inactive) | 45 µM (inactive) | 54.8 µM (inactive) | 60.7 µM (inactive) | 35.3 µM (inactive) | 51.8 µM (inactive) | > 100 µM (inactive) | – | 56.8 µM (inactive) | – | 32.4 µM (inactive) | – | > 100 µM (inactive) | 26.5 µM (inactive) | 28.9 µM (inactive) | 1.01 µM (active) | 14.2 µM (inactive) | > 100 µM (inactive) | 40.9 µM (inactive)
Clc1ccc(COC(Cn2ccnc2)c2ccc(Cl)cc2Cl)cc1 (centres undefined) [ECONAZOLE] | 5.32 µM (inactive) | 4.44 µM (inactive) | 14.3 µM (inactive) | 14.8 µM (inactive) | 12.5 µM (inactive) | 11.6 µM (inactive) | 18.8 µM (inactive) | 8.71 µM (inactive) | 10.9 µM (inactive) | 17.2 µM (inactive) | 12.9 µM (inactive) | 13.1 µM (inactive) | 13.8 µM (inactive) | 8.49 µM (inactive) | 11.9 µM (inactive) | 10.8 µM (inactive) | 14.6 µM (inactive) | 18.9 µM (inactive) | 11.5 µM (inactive) | –
O=c1[nH]c2nc3ccccc3c(=O)n2/c1=C/c1ccc(Cl)cc1 | > 100 µM (inactive) | 26.2 µM (inactive) | 26.9 µM (inactive) | > 100 µM (inactive) | 26.8 µM (inactive) | > 100 µM (inactive) | 21.7 µM (inactive) | 36 µM (inactive) | 24.3 µM (inactive) | 23.5 µM (inactive) | 53.7 µM (inactive) | 25.8 µM (inactive) | > 100 µM (inactive) | 37 µM (inactive) | – | > 100 µM (inactive) | 21.7 µM (inactive) | 16.9 µM (inactive) | 38.5 µM (inactive) | –
O=C(O)C1(C(=O)O)CCN(S(=O)(=O)c2ccccc2)CC1 | > 100 µM (inactive) | > 100 µM (inactive) | > 100 µM (inactive) | > 100 µM (inactive) | > 100 µM (inactive) | > 100 µM (inactive) | > 100 µM (inactive) | > 100 µM (inactive) | > 100 µM (inactive) | > 100 µM (inactive) | > 100 µM (inactive) | > 100 µM (inactive) | > 100 µM (inactive) | > 100 µM (inactive) | > 100 µM (inactive) | > 100 µM (inactive) | – | > 100 µM (inactive) | > 100 µM (inactive) | > 100 µM (inactive)
CCOC(=O)[C@H](C)OC(=O)[C@@](C)(NC(=O)c1ccccc1C(=O)OC)[C@@H]1NC=C(C(=O)OC)CS1 | 20.4 µM (inactive) | > 100 µM (inactive) | > 100 µM (inactive) | > 100 µM (inactive) | > 100 µM (inactive) | > 100 µM (inactive) | – | > 100 µM (inactive) | > 100 µM (inactive) | > 100 µM (inactive) | > 100 µM (inactive) | > 100 µM (inactive) | > 100 µM (inactive) | 20.3 µM (inactive) | 80 µM (inactive) | > 100 µM (inactive) | > 100 µM (inactive) | > 100 µM (inactive) | > 100 µM (inactive) | 74.1 µM (inactive)

Source: ChEMBL document CHEMBL1201862, “PubChem BioAssay data set” (2004)
